Data as given in patent US7709514B2, “Therapeutic molecules and methods-1” (Cortical Pty Ltd, priority 2002, dated 2010).
Like-named read-outs stand apart in the source and are kept apart here.

What was measured:
[1] = tested on: antigen-specific T cell activation; assay: antigen-specific (mBSA) activation of splenic T lymphocytes, 3H-thymidine incorporation; format: cell-based, mice; conditions: for EC50: Mus musculus, T-cell, read-out: EC50, inhibition of T cell activation
Method: C57BL6/J male mice, aged 7-10 weeks old, were immunised with 200 μg of methylated bovine serum albumin (mBSA) dissolved in 20 μL of saline, emulsified in 200 μL of Freund's complete adjuvant (FCA) by subcutaneous injection. Seven (7) days later mice received a booster immunisation with 100 μg mBSA in 10 μL saline plus 100 μL FCA by subcutaneous injection. After a further seven (7) days mice were killed and spleens collected aseptically into Hanks buffered saline solution (HBSS). A single cell suspension was prepared in Petri dishes by flushing DMEM using a 26G needle and 2 mL syringe. The resulting cell suspension was centrifuged for 5-7 minutes and supernatant discarded. Erythrocytes were lysed using a solution containing 0.579% NH4Cl, 0.000037% EDTA, and 0.1% NaHCO3 in a 37° C. water bath. Tubes were then filled with DMEM and centrifuged for 5-7 minutes. The cell-containing pellet was then resuspended in DMEM containing 5% fetal calf serum TICS) and 0.05% 2-mercapto-ethanol at a concentration of 1×10^6 cells/mL and plated at 1×10^5 cells/well in 96-well plastic tissue culture plates. Test substances (compound or vehicle) were added and incubated for 1 hour in a 37° C., 5% CO2 incubator. The specific stimulating antigen, mBSA, was then added at 10-50 μg/ml and plates incubated for 30 hours in a 37° C., 5% CO2 incubator. Tritiated ^3H-thymidine was then added at a concentration of 0.5 μCi/well for a further 18 hours. Cells were harvested on a Packard cell harvester, and the harvested material added to 750 μL/tube scintillation fluid. Scintillation counts were read on a Wallac beta-emission counter.
The concentration at which T cell activation was suppressed by 50% compared to vehicle-only-treated cells (EC50) was calculated using Prism® software. […] Further compounds were also tested for their ability to inhibit antigen-specific T cell activation as a marker of the inhibition of the cytokine or biological activity of MIF using this assay. Table 5 lists the EC50 for each compound in this assay, performed with concentrations of mBSA of either 50 or 10 μg/ml.

[2] = tested on: murine peritoneal macrophage nitric oxide production; assay: inhibition of peritoneal macrophage nitric oxide release (Greiss assay); format: cell-based, mice; conditions: Mus musculus, LPS 10 ng/ml and interferon-γ 10 units/ml, 24 hours, read-out: % Nitrite concentration inhibition from control
Method: C57BL6/J male mice were injected intraperitoneally with 2 ml of thioglycollate. Five (5) days later peritoneal macrophages were collected by lavaging the peritoneum of anaesthetized mice with 3 ml of cold Hanks buffered saline solution. Cells from several mice were pooled, washed and re-suspended in DMEM supplemented with 5% FCS. Cells were plated in 96 well plastic tissue culture plates at 1×10^5 cells/well. Cells were treated with compound or vehicle for 1 hour in a 5% CO2 incubator at 37° C. Cells were then treated with LPS (10 ng/ml) and recombinant human interferon-γ (10 units/ml) and incubated for 24 hours. After 24 hours, 50 μl of supernatant from each well was carefully removed and transferred to ELISA plates. The concentration of nitrite in culture supernatants was measured by the Greiss assay (27). The results were defined as the percentage inhibition of nitrite concentration in compound-treated cell culture supernatants compared to that of vehicle-treated cells.

[3] = tested on: murine endotoxic shock model; assay: murine endotoxic shock model (LPS), cytokines by ELISA; format: in vivo, mice
[4] = tested on: lymph node and splenic T cells; assay: ex vivo antigen-specific T cell activation after in vivo treatment; parameters: species or system mice
Description: In vivo administration of such a compound might be expected to exert effects on T cell responsiveness even after the T cells have been removed from exposure to the compound, that is, if T cells were studied ex vivo after in vivo treatment with the MIF antagonist compound. To measure ex vivo antigen-specific T cell activation, draining lymph nodes from arthritic limbs or spleens were removed from mice with murine antigen induced arthritis, induced as above with mBSA, at day 28 after first immunisation and a single cell suspension prepared in DMEM containing 5% FCS and 0.05% 2-mercaptoethanol. 1×10^5 cells/200 μl were cultured in triplicate in the presence or absence of mBSA (0.1, 1.0, 10 μg/ml) in 96-well plates for 48 hours (37° C., 5% CO2.) The T cell proliferation response was determined by measuring ^3H-thymidine incorporation during the final 18 hr. The cells were harvested and radioactivity incorporation into the DNA was measured with a Wallac 1409 liquid scintillation counter. The means of each triplicate culture were calculated. Each experiment comprised at least three individual animals and the results presented represent the mean±SEM of groups of animals in each experiment. The percentage inhibition of T cell proliferation was calculated using the result of the […] incorporation of cells from compound-treated animals subtracted from the ^3H-thymidine incorporation of cells from vehicle-treated animals.

[5] = tested on: MIF-induced proliferation of S112 human dermal fibroblasts; assay: dermal fibroblast proliferation induced by recombinant MIF; format: cell-based; conditions: compound 0.013 μM
Method: The activity of compound 5 was studied in a bioassay utilising MIF-induced proliferation of human dermal fibroblasts. S112 human dermal fibroblasts were propagated in RPMI/10% foetal calf serum (FCS). Prior to experimentation, cells were seeded at 10^5 cells/ml in RPMI/0.1% 13SA for 18 hours. At time point zero, culture medium was replaced with RPMI/10% FCS and treatments administered. Cells were treated with recombinant human macrophage migration inhibitory factor (MIF) 50 ng/ml and/or compound 5 at a 1-1000 molar ratio to the concentration of MIF. At a time point 30 hours later, cells were pulsed with 1 μCi/well of ^3H-thymidine. At a time point 48 hours after commencement of the experiment, cells were harvested using a semi-automated cell harvester. The radioactivity incorporated into DNA was determined by liquid scintillation counting, with results expressed as [^3H] thymidine incorporation.

What does the source list for CCCCCOC(=O)c1ccc2[nH]c(=O)[nH]c2c1 [Compound 5]?
effect on antigen-specific T cell activation ([1]; FIG. 8, mBSA 50 μg/mL, increasing concentrations): dose-dependent and statistically significant inhibitory effect; EC50 ([1]; mBSA 10 μg/ml): 15.3 µM; EC50 ([1]; mBSA 50 μg/ml): 13.8 µM; inhibition at 25 µM ([2]; compound 25 μM): 11.1%; inhibition at 50 µM ([2]; compound 50 μM): 19.7%; inhibition at 100 µM ([2]; compound 100 μM): 28.6%; Serum IL-6 at 6 h, LPS + cpd ([3]; IP injection 1 mg/kg at −1 h, LPS alone 215100): 101000; Serum IL-6 at 6 h, LPS + cpd ([3]; IP injection 5 mg/kg at −1 h, LPS alone 215100): 108200; Serum IL-6 at 6 h, LPS + cpd ([3]; IP injection 15 mg/kg at −24, −12, −1 h, LPS alone 261900): 162800; ex vivo activation of lymph node T cells in response to mBSA ([4]; FIG. 11a, vs vehicle): reduced proliferative responses; ex vivo splenic T cell proliferation in response to mBSA ([4]; FIG. 11b, table 7, vs vehicle): inhibitory effect; % inhibition of ex vivo splenic T cell activation ([4]; [mBSA] 1 μg/mL): 33%; % inhibition of ex vivo splenic T cell activation ([4]; [mBSA] 10 μg/mL): 30%; effect on proliferation of S112 cells treated with recombinant human MIF ([5]; FIG. 12): marked and statistically significant inhibitory effect; inhibition at 0.013 µM ([5]; Homo sapiens, Fibroblast, read-out: % inhibition of MIF-induced proliferation, rhMIF 50 ng/ml, S112, P < 0.001): 98%
